In US20050143450A1, “Alkyl PCDF as a treatment for prostate cancer” (priority 2002, published 2005):

Tests used:
22Rv1 cells = experiment: Growth inhibition of 22Rv1 prostate cancer cells; type: cell-based
Experimental: 22Rv1 cells were treated with various concentrations of TCDD.
In a second study, 22Rv1 cells were maintained in 10% serum, and various concentrations of 6-MCDF were added to the cells.

AR = molecular target: T1, AR (Homo sapiens, UniProt P10275, T878A); type: cell-based; conditions: LNCaP, pPB; for effect on E2-induced luciferase activity: cotreatment with 10 nM E2
T1 construct: AR protein levels in whole cell lysates were determined by Western blot analysis; endogenous in cells; host or cells: LNCaP
T1 sequence (P10275 1-920 T878A): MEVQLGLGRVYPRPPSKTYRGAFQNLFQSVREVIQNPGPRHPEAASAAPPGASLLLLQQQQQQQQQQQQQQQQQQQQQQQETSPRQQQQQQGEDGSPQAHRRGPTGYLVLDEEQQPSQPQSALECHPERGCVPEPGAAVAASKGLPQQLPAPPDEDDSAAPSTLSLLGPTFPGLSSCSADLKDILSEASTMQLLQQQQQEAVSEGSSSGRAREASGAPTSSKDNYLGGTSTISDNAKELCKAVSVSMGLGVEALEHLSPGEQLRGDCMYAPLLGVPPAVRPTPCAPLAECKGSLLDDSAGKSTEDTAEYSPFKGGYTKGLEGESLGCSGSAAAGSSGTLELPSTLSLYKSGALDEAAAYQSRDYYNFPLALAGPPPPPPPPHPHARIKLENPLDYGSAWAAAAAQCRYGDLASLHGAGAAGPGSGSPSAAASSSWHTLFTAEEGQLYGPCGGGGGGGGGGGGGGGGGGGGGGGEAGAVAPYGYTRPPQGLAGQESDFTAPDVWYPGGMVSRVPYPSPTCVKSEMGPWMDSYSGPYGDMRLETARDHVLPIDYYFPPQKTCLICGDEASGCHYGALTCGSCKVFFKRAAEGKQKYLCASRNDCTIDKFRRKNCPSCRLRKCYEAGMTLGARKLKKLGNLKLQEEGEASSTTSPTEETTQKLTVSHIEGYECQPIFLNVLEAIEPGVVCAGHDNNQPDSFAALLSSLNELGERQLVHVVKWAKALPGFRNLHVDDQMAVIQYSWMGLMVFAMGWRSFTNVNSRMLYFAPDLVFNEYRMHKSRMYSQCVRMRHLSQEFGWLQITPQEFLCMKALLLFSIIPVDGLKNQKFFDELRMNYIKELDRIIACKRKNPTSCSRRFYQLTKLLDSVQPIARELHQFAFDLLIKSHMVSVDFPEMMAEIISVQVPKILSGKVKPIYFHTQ
Experimental: (§1) After 24 h, cells were transfected using Lipofectamine and Plus reagents (Invitrogen) according to manufacturer's instructions. LNCaP and ZR-75 cells were transfected with 500 ng/well of either reporter plasmid, and 250 ng/well of pcDNA3.1-β-gal (Invitrogen) as the internal control. In addition, ZR-75 cells were transfected with 500 ng hAR. Twenty-four hours after treatment, cells were harvested by scraping with 200 μL/well of reporter lysis buffer. Lysates were centrifuged at 40,000 g and luciferase and β-galactosidase activity was assayed with 30 μL of the supernatant extract per sample using a Lumicount luminometer (PerkinElmer, Boston, Mass.). Luciferase activity was normalized to β-galactosidase activity for each transfection well.
The transfected cells were then treated with hormone or AhR agonist alone or in combination and luciferase activity was determined as described in the above examples.

[1] = system: androgen-responsive probasin gene promoter (pPB); type: cell-based, human; conditions: ZR-75 cells, pPB alone
Experimental: as §1, with “ZR-75 human breast cancer and LNCaP human prostate cancer cells were obtained from American Type Culture Collection (Manassas, Va.) and were maintained in RPMI 1640 medium supplemented with 10% FBS, 1% antibiotic/antimycotic solution, 1.5 g/L sodium bicarbonate, and 10 mM HEPES, final pH of 7.4. Cells were seeded at 2.75×10^5 per 22-mm well in DME-F12 without phenol red, supplemented with 2.5% charcoal-stripped fetal bovine serum (FBS). After” for “After”

AhR = molecular target: T2, AhR (Homo sapiens, UniProt P35869); experiment: AhR activation, pDRE3 luciferase transient transfection in LNCaP cells; type: cell-based
T2 construct: LNCaP cells were transfected with pDRE3, treated with various compounds and luciferase activity was determined; endogenous in cells; host or cells: LNCaP
T2 sequence (P35869 11-848): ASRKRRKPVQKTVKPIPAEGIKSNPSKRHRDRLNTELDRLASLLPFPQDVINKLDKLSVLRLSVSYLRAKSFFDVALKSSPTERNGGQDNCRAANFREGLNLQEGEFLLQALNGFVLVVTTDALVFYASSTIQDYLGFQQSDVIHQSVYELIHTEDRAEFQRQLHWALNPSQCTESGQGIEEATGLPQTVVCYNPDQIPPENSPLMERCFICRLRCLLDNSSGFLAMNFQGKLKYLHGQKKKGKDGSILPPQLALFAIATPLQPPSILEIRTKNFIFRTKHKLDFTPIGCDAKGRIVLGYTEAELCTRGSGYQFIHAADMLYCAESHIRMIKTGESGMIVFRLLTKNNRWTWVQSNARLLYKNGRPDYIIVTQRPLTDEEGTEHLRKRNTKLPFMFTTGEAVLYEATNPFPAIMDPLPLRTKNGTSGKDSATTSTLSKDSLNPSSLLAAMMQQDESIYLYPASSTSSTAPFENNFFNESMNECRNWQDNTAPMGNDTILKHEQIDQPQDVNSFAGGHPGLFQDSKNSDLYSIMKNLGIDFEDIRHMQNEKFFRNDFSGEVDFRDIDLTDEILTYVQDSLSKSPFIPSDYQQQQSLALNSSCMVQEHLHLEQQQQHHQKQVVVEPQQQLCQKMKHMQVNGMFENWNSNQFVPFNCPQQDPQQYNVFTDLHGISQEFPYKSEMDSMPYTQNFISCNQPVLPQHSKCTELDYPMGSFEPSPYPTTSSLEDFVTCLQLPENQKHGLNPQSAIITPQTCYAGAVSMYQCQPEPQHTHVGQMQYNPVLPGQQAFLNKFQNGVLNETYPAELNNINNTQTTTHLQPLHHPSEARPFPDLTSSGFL
Experimental: as §1
LNCaP cells were transfected with pDRE3, treated with various compounds and luciferase activity was determined as described in the above Examples.

Compound: Cc1cc(Cl)cc2c1oc1cc(Cl)cc(Cl)c12 [6-MCDF, 6-methyl-1,3,8-trichlorodibenzofuran]
- 22Rv1 cell proliferation (22Rv1 cells; cells maintained in 10% serum, various concentrations): concentration-dependent decrease
- effect on E2-induced luciferase activity (AR; HPTE 10 μM): significantly decreased
- induction of luciferase activity by AhR agonist alone (AR; MCDF 2 μM): did not significantly induce activity
- reporter gene activity [1]: did not activate
- luciferase activity induction (AhR; pDRE3, 2 μM): > 7 fold

Compound: Clc1cc2c(cc1Cl)Oc1cc(Cl)c(Cl)cc1O2 [TCDD, 2,3,7,8-tetrachloro-p-dioxin]
- testosterone-induced growth of 22Rv1 cells (22Rv1 cells; 1 nM): inhibited
- constitutive growth of 22Rv1 cells (22Rv1 cells; 1 nM alone): inhibited
- effect on DHT-induced luciferase activity (AR; cotreatment with 10 nM DHT, MCDF 2 μM, HPTE 10 μM): significantly inhibited
- effect on E2-induced luciferase activity (AR; HPTE 10 μM): significantly decreased
- induction of luciferase activity by AhR agonist alone (AR; MCDF 2 μM): did not significantly induce activity
- reporter gene activity [1]: did not activate
- luciferase activity induction compared to solvent control (DMSO) (AhR; pDRE3, 10 nM): > 9 fold
